One test concerns the target hERG (KV11.1) (Homo sapiens, UniProt Q12809). Description: automated patch clamp. The test is classed as cell-based.
The next test concerns the target hSK3 (KCa2.3) (Homo sapiens, UniProt Q9UGI6). As to the kind of experiment: automated whole-cell patch clamp. It is filed as cell-based. Background: Patch clamp records ionic current or voltage across a cell membrane.

Chain of hSK3 (KCa2.3) (Q9UGI6 whole entry): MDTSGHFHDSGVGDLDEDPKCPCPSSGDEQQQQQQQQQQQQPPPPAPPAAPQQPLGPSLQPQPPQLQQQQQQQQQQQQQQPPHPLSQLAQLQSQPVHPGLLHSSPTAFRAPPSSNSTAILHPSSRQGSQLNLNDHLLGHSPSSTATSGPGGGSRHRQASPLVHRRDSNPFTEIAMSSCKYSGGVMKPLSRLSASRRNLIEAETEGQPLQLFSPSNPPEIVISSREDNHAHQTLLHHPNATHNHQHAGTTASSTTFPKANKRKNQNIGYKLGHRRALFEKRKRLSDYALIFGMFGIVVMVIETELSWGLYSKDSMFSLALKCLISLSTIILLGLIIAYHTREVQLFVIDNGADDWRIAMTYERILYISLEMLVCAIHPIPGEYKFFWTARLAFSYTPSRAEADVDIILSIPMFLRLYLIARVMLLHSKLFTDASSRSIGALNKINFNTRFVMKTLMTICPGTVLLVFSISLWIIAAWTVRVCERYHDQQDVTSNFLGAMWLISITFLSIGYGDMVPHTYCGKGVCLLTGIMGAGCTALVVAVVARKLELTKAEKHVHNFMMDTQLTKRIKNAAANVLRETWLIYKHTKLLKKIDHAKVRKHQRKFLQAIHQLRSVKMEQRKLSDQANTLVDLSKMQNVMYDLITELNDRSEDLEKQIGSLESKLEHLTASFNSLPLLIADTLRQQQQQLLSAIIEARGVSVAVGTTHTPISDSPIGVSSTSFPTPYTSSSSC
Chain of hERG (KV11.1) (Q12809 whole entry): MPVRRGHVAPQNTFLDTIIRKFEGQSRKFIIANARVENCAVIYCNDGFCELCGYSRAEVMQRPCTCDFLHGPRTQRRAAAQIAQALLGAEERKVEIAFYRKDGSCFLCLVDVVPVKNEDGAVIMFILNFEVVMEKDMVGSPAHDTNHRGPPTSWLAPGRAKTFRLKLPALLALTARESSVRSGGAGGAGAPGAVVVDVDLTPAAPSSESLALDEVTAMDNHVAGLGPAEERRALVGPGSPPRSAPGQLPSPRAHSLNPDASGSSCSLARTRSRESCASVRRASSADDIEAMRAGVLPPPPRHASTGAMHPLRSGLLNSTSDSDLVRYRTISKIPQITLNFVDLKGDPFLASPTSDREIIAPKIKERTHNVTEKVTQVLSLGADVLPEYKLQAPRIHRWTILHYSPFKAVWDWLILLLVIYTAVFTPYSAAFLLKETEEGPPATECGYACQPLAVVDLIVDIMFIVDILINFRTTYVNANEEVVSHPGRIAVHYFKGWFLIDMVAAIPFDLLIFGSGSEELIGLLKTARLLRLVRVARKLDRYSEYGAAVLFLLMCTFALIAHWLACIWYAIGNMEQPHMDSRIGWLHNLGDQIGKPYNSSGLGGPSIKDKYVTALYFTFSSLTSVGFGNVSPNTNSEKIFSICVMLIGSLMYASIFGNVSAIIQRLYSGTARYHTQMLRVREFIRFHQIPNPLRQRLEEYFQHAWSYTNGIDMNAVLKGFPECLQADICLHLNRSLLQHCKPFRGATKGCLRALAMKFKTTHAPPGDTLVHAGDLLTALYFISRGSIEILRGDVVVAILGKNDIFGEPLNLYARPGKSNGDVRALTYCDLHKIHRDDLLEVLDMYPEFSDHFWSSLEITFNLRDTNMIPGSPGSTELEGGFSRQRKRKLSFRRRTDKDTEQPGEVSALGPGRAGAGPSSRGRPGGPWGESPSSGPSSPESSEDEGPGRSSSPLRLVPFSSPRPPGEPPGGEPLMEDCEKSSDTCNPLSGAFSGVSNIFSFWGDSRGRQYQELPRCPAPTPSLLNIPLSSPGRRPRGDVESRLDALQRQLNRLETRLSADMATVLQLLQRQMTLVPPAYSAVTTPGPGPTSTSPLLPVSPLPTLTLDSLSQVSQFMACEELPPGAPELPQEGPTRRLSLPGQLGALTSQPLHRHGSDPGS

A word on the IC50: it is the point on the concentration scale where inhibition reaches its midpoint. A lower IC50 goes with inhibition by little substance. With `CC(=O)Nc1cccc2[nH]c(N[C@H](C)c3cccc(C(F)(F)F)c3)nc12` [AP14145, N-(2-{[(1R)-1-[3-(trifluoromethyl)phenyl]ethyl]amino}-1H-1,3-benzodiazol-4-yl)acetamide], the IC50 at hERG (KV11.1) was found to be 71.8 ± 0.5 µM; against hSK3 (KCa2.3) it was 1.3 ± 0.4 µM.

The values are drawn from publication PMC5647113 (Circulation. Arrhythmia and electrophysiology, 2017).
